The text below walks through data of patent US6214833A, “Pyrimidinone-1,3-oxathiolane derivatives with antiviral activity” (Zambon Group S.p.A., priority 1997, dated 2001).

SMILES strings stand for the structures. Where only a bound is given, the exact number is not on record here.

The subject of test [1] is fresh human macrophages infected by the macrophage-trophic HIV-1 PAR strain. Description: anti-HIV activity on macrophages: inhibition of viral reverse transcriptase activity in culture supernatant at peak. It is filed as cell-based, HIV-1 PAR strain; human macrophages. The note with it: Human immunodeficiency virus 1, Macrophage; fresh human macrophages infected by HIV-1 PAR; about 1 month culture at 37° C.; at peak of reverse transcriptase expression. The procedure: (§1) The antiviral activity of the compounds of formula I, object of the present invention, was evaluated on the MT4 human lymphocytes infected by HIV-1 BRU strain and on fresh human macrophages infected by the macrophage-trophic HIV-1 PAR strain.
(§2) Both kinds of experiment were carried out following conventionally used methods for the evaluation of reverse transcriptase inhibitors and are predictive of the in vivo anti-HIV activity.
(§3) The anti-HIV activity of the compounds of formula I was evaluated on the limphocitic human cell line MT4 infected by HIV-1 strain BRU and on fresh human macrophages infected by the macrophage-trophic HIV- 1 PAR strain.
The cells, infected and treated with the compounds of formula I, were cultured at 37° C. for about 1 month. Every 3-4 days the culture supernatant was withdrawn and substituted with fresh medium containing or not the compounds of formula I. The viral reverse-transcriptase activity, determined in the culture supernatant every 3-4 days, was followed up to the end of the experiment by determining the maximum peak of the enzyme expression. In the correspondence of such a peak the anti-HIV activity was evaluated as 50% inhibition (IC50) of the enzymatic activity in the supernatant of the infected and treated cultures in comparison with the control ones.
The used methodology was described by Schmidtmayerova H. et al. on Virology (1992), 190, 124-133.
(§4) In the following table the data of anti-HIV activity on both the cell lines for some representative compounds of formula I are reported.

Test [2] concerns limphocitic human cell line MT4 infected by HIV-1 strain BRU. Description: anti-HIV activity on lymphocytes (MT4 cells): inhibition of viral reverse transcriptase activity in culture supernatant. It is filed as cell-based, HIV-1 strain BRU; human MT4 cells. To be noted: Human immunodeficiency virus 1, Lymphocyte, MT4 human lymphocytes infected by HIV-1 BRU, 7-8 days culture at 37° C. The method, then:
as §1, §2, §3
The cells, infected and treated with the compounds of formula I, were cultured at 37° C. for 7-8 days. Every 3-4 days the culture supernatant was withdrawn and substituted with fresh medium containing or not the compounds of formula I. The anti-HIV activity was evaluated at the end of the experiment as 50% inhibition (IC50) of the activity of the viral reverse transcriptase in the supernatant of infected cultures in comparison with the control cultures.
The used methodologies were described in the papers published by Rey M. A. et al. on Biochem. Biophys. Res. Commun. (1984), 121, 126-133 and on Virology (1991), 181, 165-171.
as §4

In another test the test system is HIV. To be noted: compared with zidovudine, zalcitabine, didanosine and stavudine; WO 91/17159; cited from earlier work.

On to `Nc1ccn([C@@H]2CS[C@H](CO)O2)c(=O)n1` (relative stereo) [BCH-189, 4-amino-1-(2-hydroxymethyl-1,3-oxathiolan-5-yl)-2(1H)-pyrimidinone, reference compound], for which the IC50 amounted to 100 nM in test [1] and 700 nM in test [2].
Regarding `CC(C)(C)OC(=O)N(CCCCCC(=O)OC[C@@H]1O[C@H](n2ccc(N)nc2=O)CS1)CCCCCN(Cc1ccccc1)C(=O)OC(C)(C)C` (relative stereo) [Compound 1, (±)-4-Amino-1-[2-[6-[5-(N'-tert-butoxycarbonyl-N'-phenylmethylamino)-N-tert-butoxycarbonyl-pentylamino]-hexanoyloxymethyl]-1,3-oxathiolan-5-yl]-2(1H)-pyrimidinone], the IC50 in test [2] is 1 to 5 nM.
In test [2], `CC(C)(C)OC(=O)N(CCCCCC(=O)OC[C@@H]1O[C@H](n2ccc(N)nc2=O)CS1)Cc1ccccc1` (relative stereo) [Compound 4, (±)-4-Amino-1-[2-[6-(N-tert-butoxycarbonyl-N-phenylmethylamino)-hexanoyloxy-methyl]-1,3-oxathiolan-5-yl]-2(1H)-pyrimidinone] had an IC50 of 1 nM.
`CC(C)(C)OC(=O)N(CCCCCC(=O)OC[C@@H]1O[C@H](n2ccc(N)nc2=O)CS1)Cc1cccc(C(F)(F)F)c1` (relative stereo) [Compound 6, (±)-4-Amino-1-[2-[6-[N-tert-butoxycarbonyl-N-(3trifluoromethylphenyl)methyl-amino]-hexanoyloxymethyl-]1,3-oxathiolan-5-yl]-2(1H)-pyrimidinone] yielded an IC50 in test [2] of 4 nM.
For `CC(C)(C)OC(=O)N(CCCCCC(=O)OC[C@@H]1O[C@H](n2ccc(N)nc2=O)CS1)Cc1ccccc1C(F)(F)F` (relative stereo) [Compound 7, (±)-4-Amino-1-[2-[6-[N-tert-butoxycarbonyl-N-(2-trifluoromethyl-phenyl)methyl-amino]-hexanoyloxymethyl-]-1,3-oxathiolan-5-yl]-2(1H)-pyrimidinone], in test [2], the IC50 was 1 to 10 nM.
The compound `CC(C)(C)OC(=O)N(CCCCCCN(Cc1ccccc1C(F)(F)F)C(=O)OC(C)(C)C)CCCCCC(=O)OC[C@@H]1O[C@H](n2ccc(N)nc2=O)CS1` (relative stereo) [Compound 8, (±)-4-Amino-1-[2-[6-[6-[N'-tert-butoxycarbonyl-N'-(2-trifluoromethylphenyl)methylamino]-N-tert-butoxycarbonyl-hexylamino]-hexanoyloxymethyl]-1,3-oxathiolan-5-yl]-2(1H)-pyrimidinone] yielded an IC50 in test [2] of 100 nM.
`CCOC(=O)N(CCCCCC(=O)OC[C@@H]1O[C@H](n2ccc(N)nc2=O)CS1)Cc1ccccc1` (relative stereo) [Compound 9, (±)-4-Amino-1-[2-[6-(N-ethoxycarbonyl-N-phenylmethylamino)-hexanoyloxymethyl]-1,3-oxathiolan-5-yl]-2(1H)-pyrimidinone]: in test [2], the IC50 was 1 to 50 nM.
`CC(C)(C)OC(=O)N(CC(=O)OC[C@@H]1O[C@H](n2ccc(N)nc2=O)CS1)Cc1ccccc1` (relative stereo) [Compound 10, (±)-4-Amino-1-[2-[(N-tert-butoxycarbonyl-N-phenylmethylamino)-acetyloxymethyl]-1,3-oxathiolan-5-yl]-2(1H)-pyrimidinone]: the IC50 in test [2] lay within 10 to 100 nM.
In test [2], `Nc1ccn([C@@H]2CS[C@H](COC(=O)CCCCCNCCCCCNCc3ccccc3)O2)c(=O)n1` (relative stereo) [Compound 48, (±)-4-Amino-1-[2-[6-[5-(phenylmethylamino)pentylamino]-hexanoyloxymethyl]-1,3-oxathiolan-5-yl]-2(1H)-pyrimidinone] returned an IC50 of 150 nM.
The same measure, in the same setting: as for `Nc1ccn([C@@H]2CS[C@H](COC(=O)CCCCNCCCCCCNCc3ccccc3)O2)c(=O)n1` (relative stereo) [Compound 49, (±)-4-Amino-1-[2-[5-[6-(phenylmethylamino)hexylamino]-pentanoyloxymethyl]-1,3-oxathiolan-5-yl]-2(1H)-pyrimidinone], the figure is 900 nM; as for `Nc1ccn([C@@H]2CS[C@H](COC(=O)CCCCCNCc3ccccc3)O2)c(=O)n1` (relative stereo) [Compound 52, (±)-4-Amino-1-[2-[6-(phenylmethylamino)hexanoyloxymethyl]-1,3-oxathiolan-5-yl]-2(1H)-pyrimidinone], 100 to 1000 nM; as for `Nc1ccn([C@@H]2CS[C@H](COC(=O)CCCCCNCc3cccc(C(F)(F)F)c3)O2)c(=O)n1` (relative stereo) [Compound 53, (±)-4-Amino-1-[2-[6-[(3trifluorophenyl)methylamino]-hexanoyloxymethyl]-1,3-oxathiolan-5-yl]-2(1H)-pyrimidinone], 700 nM.
With `Nc1ccn([C@@H]2CS[C@H](COC(=O)CCCCCNCCCCCCNCc3ccccc3C(F)(F)F)O2)c(=O)n1` (relative stereo) [Compound 54, (±)-4-Amino-1-[2-[6-[6-[(2-trifluoromethylphenyl)methylamino]-hexylamino]-hexanoyloxymethyl]-1,3-oxathiolan-5-yl]-2(1H)-pyrimidinone], the IC50 in test [2] was 800 nM.
`Nc1ccn([C@@H]2CS[C@H](COC(=O)CCCCCNCc3ccccc3C(F)(F)F)O2)c(=O)n1` (relative stereo) [Compound 55, (±)-4-Amino-1-[2-[6-[(2-trifluorophenyl)methylamino]-hexanoyloxymethyl]-1,3-oxathiolan-5-yl]-2(1H)-pyrimidinone] came in with an IC50 in test [2] of 100 nM.
Regarding `O=C(CCCCCNCCCCCCNCc1ccccc1)Nc1ccn([C@@H]2CS[C@H](CO)O2)c(=O)n1` (relative stereo) [Compound 56, (±)-1-(2-Hydroxymethyl-1,3-oxathiolan-5-yl)-4-[6-[6-phenylmethylamino)hexylamino]-hexanoylamino]-2(1H)-pyrimidinone], the results for the IC50 in test [1] and in test [2] were 100 nM and 130 nM, respectively.
For the compound `O=C(CCCCCNCCCCCNCc1ccccc1)Nc1ccn([C@@H]2CS[C@H](CO)O2)c(=O)n1` (relative stereo) [Compound 57, (±)-1-(2-Hydroxymethyl-1,3-oxathiolan-5-yl)-4-[6-[5-(phenylmethylamino)pentylamino]-hexanoylamino]-2(1H)-pyrimidinone], the IC50 is 100 nM in test [1] and 410 nM in test [2].
In the case of `CC(C)(C)OC(=O)N(CCCCCC(=O)OC[C@H]1O[C@@H](n2ccc(N)nc2=O)CS1)CCCCCN(Cc1ccccc1)C(=O)OC(C)(C)C` [Compound 2, (2S, 5R)-4-Amino-1-[2-[6-[5-(N'-tert-butoxycarbonyl-N'-phenylmethylamino)-N-tert-butoxycarbonyl-pentylamino]-hexanoyloxymethyl]-1,3-oxathiolan-5-yl]-2(1H)-pyrimidinone], in test [2], the IC50 was under 100 nM.
For `Nc1ccn([C@@H]2CS[C@H](CO)O2)c(=O)n1` [lamivudine, (2R-cis)-4-amino-1-(2-hydroxymethyl-1,3-oxathiolan-5-yl)-2(1H)-pyrimidinone], in the test with HIV, the “antiviral potency and toxicity compared with other RT-inhibitors” value is “more potent and less toxic antiviral than zidovudine, zalcitabine, didanosine and stavudine”.
